From PMC11813584, “An odorant-binding protein functions in fire ant social immunity interfacing with innate immunity” (Open Biology, 2025)
“Also recorded” adds a separate entry of the source. Where two headings read alike, the source gives them in different places.

Columns and labels:
[1] = biological target: SiOBP15 (Solenopsis invicta, UniProt F1DI94); test: 1-NPN fluorescent binding / competition (displacement) assay, purified SiOBP15; settings: for binding to SiOBP15 (in words): 1-NPN competition, SiOBP15 alone
Procedure: (§1) The ORFs corresponding to SiOBP15, SiApoLp-III and SiFABP5 were separately cloned into the pET28a expression vector as His-tag fusion proteins. The integrity of plasmid constructs was verified by sequencing and plasmids were transformed into the Escherichia coli BL21 strain for heterologous protein expression. Proteins were purified using a nickel affinity (NI) resin (Ni-Sepharose Cl-6B agarose) according to the manufacturer’s protocol. Purified proteins were analysed by SDS–PAGE for purity and further confirmed by western blotting using an anti-His tag antibody as the probe. His-tags were removed by protease cleavage, and after determining final protein concentrations, aliquots of the purified protein samples were maintained at −80°C. Protein–protein interactions between SiOBP15 and SiApoLp-III and SiOBP15 and SiFABP5 were analysed using open surface plasmon resonance (SPR) by coupling the SiOBP15 protein (ligand) to a COOH chip until saturation. Purified SiFABP5 and SiApoLp-III proteins (analytes) were then added to analyse the kinetics of the interaction between these proteins. Binding kinetics were analysed by titration of the proteins. All experiments were performed three times with the same ‘chip’, and the entire experiment was repeated with three independent COOH-SiOBP15 chip. Dissociation constants were calculated using TraceDrawer (Ridgeview Instruments ab, Sweden) with a one-to-one interaction model.
(§2) N-phenyl-1-naphthylamine (1-NPN) was used as a probe for competition (displacement) based fluorescent binding assays as previously described. Samples were analysed using a Hitachi F-2000 fluorescence spectrophotometer at an excitation wavelength of 350 nm and an emission wavelength of 420 nm. The binding constant of the purified proteins to 1-NPN was determined over a substrate concentration range from 2 to 20 μM using 1.0 μM protein in 10 mM HEPES, 100 mM NaCl buffer, pH 7.5. Subsequent competition/displacement assays using test ligands were performed using a concentration of 2 μM 1-NPN, 2 μM protein and 2−40 μM test ligand. Dissociation constants (Kd) for 1-NPN were calculated by Scatchard plot analyses using GraphPad Prism 8 Software (GraphPad, La Jolla, CA, USA). The dissociation constants of test ligands (Kapp) in 1-NPN competition assays were calculated using the concentration of test ligand required to displace 50% of the 1-NPN signal (IC50) values using the following equation: Kapp = (IC50)/(1 + (1 − NPN)/K1 – NPN).

[2] = biological target: SiOBP15 + SiApoLp III (Solenopsis invicta, UniProt F1DI94); test: 1-NPN fluorescent binding / competition assay, SiOBP15 co-incubated with SiApoLp-III
Procedure: as §1, §2

[3] = system: S. invicta workers; test: Dismemberment behavioural assay; type: in vivo, Solenopsis invicta; settings: for effect on behaviour: corpse-dismemberment of freeze-killed conspecifics treated with the chemical; for corpse dismemberment, RNAi targeting SiOBP15 + SiApoLp-III: dual RNAi; for corpse dismemberment, RNAi targeting SiOBP15 + SiApoLp-III / corpse dismemberment, RNAi targeting SiApoLp-III / corpse dismemberment, RNAi targeting SiFABP5 / corpse dismemberment, RNAi targeting SiOBP15 / corpse dismemberment, GFP RNAi (control) workers: freeze-killed corpses + chemical; for corpse dismemberment, RNAi targeting SiOBP15 + SiApoLp-III / corpse dismemberment, RNAi targeting SiApoLp-III / corpse dismemberment, RNAi targeting SiFABP5 / corpse dismemberment, RNAi targeting SiOBP15: compared to freeze-killed workers treated with the same chemical; for corpse dismemberment, GFP RNAi (control) workers: compared to freeze-killed, no additions; for dismemberment behaviour towards freeze-killed ants treated with the compound: healthy / untreated and GFP-RNAi workers, compared to freeze-killed control ants
Procedure: Fresh corpses of workers killed by either rapid immersion in liquid nitrogen were collected and maintained at −80°C until use. Infection was performed by immersing workers for 5 s in 1 × 10^8 suspensions of fungal conidia. Infected workers were kept in isolated boxes until mortality (3–4 days) and were then used immediately for dismemberment assays. Each technical replicate of a dismemberment assay used five workers selected from different treatment groups (i.e. killed by freezing, killed by B. bassiana or subjected to another treatment as indicated). Of the five ‘killed’ workers, […] near the edge of the container in a ‘+’ pattern of a plastic container (9 cm diameter) and one in the centre. To each container was added 15 healthy workers or 15 workers treated as described below (e.g. RNAi treated). Containers contained an Eppendorf tube with a sterile solution of 5% sucrose. Corpse-dismemberment behaviour was assessed every 12 h for three consecutive days, and corpse limbs or other parts that were dismembered were counted. The corpse-dismemberment percentage was calculated by dividing the total number of dismembered parts (5 corpses × 10 body parts/each cage/3 days). Each experiment contained three technical replicates, and the entire experiment was repeated at least three times.
The specific dsRNA primers used in this study were synthesized using an in vitro transcription T7 kit (TAKARA, Dalian, China; electronic supplementary material, table S1). dsRNA concentrations were measured using a NanoVue Plus spectrophotometer (GE Healthcare Life Sciences, Little Chalfont, UK). In total, 50 nl of dsRNA of either the target genes or DsRNA-GFP (control) at indicated concentrations (up to 3000 ng μl^−1) were injected into each worker. Dismemberment assays were performed as above with three technical replicates, and each experiment was repeated at least three times using three different batches of ants. RNAi efficiencies was analysed by qRT-PCR.

[4] = biological target: SiFABP5 (Solenopsis invicta, UniProt Z9HHL8OTK9); test: 1-NPN fluorescent binding / competition assay, purified SiFABP5; settings: 1-NPN displacement; 2 μM 1-NPN, 2 μM protein; read-out: Kapp, competition, SiFABP5
Procedure: as §1, with “His-tags were removed by protease cleavage, and after determining final protein concentrations, aliquots of the purified protein samples were maintained at −80°C.” left out, “Purified SiFABP5 and SiApoLp-III proteins (analytes) were then added to analyse the kinetics of the interaction between these proteins.” left out, “All experiments were performed three times with the same ‘chip’, and the entire experiment was repeated with three independent COOH-SiOBP15 chip.” left out
(§3) N-phenyl-1-naphthylamine (1-NPN) was used as a probe for competition (displacement) based fluorescent binding assays as previously described. Samples were analysed using a Hitachi F-2000 fluorescence spectrophotometer at an excitation wavelength of 350 nm and an emission wavelength of 420 nm. […]

[5] = biological target: SiOBP15 + SiFABP5 (Solenopsis invicta, UniProt F1DI94+Z9HHL8OTK9); test: 1-NPN fluorescent binding / competition assay, SiOBP15 co-incubated with SiFABP5; settings: 1-NPN displacement; co-incubation of SiOBP15 with SiFABP5; read-out: Kapp, competition, SiOBP15 + SiFABP5
Procedure: as §1, with “His-tags were removed by protease cleavage, and after determining final protein concentrations, aliquots of the purified protein samples were maintained at −80°C.” left out, “Purified SiFABP5 and SiApoLp-III proteins (analytes) were then added to analyse the kinetics of the interaction between these proteins.” left out, “All experiments were performed three times with the same ‘chip’, and the entire experiment was repeated with three independent COOH-SiOBP15 chip.” left out
as §3

[6] = 1-NPN displacement, 2 μM 1-NPN, 2 μM protein, 2-40 μM test ligand, read-out: Kapp, competition, SiOBP15
[7] = 1-NPN displacement; co-incubation of SiOBP15 with SiApoLp-III; read-out: Kapp, competition, SiOBP15 + SiApoLp III
[8] = read-out: Kapp, competition, SiOBP15 + SiApoLp III; 1-NPN displacement; co-incubation of SiOBP15 with SiApoLp-III

Sequence of SiOBP15 (F1DI94 entry or part of it): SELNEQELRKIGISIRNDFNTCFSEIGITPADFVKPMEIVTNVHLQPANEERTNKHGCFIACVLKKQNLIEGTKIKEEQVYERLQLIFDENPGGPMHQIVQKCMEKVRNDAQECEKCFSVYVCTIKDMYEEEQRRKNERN
Sequence of SiOBP15 + SiApoLp III (F1DI94 entry or part of it): as above
Sequence of SiOBP15 + SiApoLp III (Q6B972 entry or part of it, further chain): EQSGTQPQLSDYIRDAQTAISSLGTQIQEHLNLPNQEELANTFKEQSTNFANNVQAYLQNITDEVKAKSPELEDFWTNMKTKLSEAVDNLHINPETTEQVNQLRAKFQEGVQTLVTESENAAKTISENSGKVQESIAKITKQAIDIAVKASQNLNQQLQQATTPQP
Sequence of SiFABP5 (Z9HHL8OTK9 1-133): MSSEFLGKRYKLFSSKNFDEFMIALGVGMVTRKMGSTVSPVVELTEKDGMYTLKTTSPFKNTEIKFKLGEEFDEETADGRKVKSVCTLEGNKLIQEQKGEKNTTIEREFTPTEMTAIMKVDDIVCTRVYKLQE
Sequence of SiOBP15 + SiFABP5 (F1DI94 23-162 limits assumed): as the sequence (F1DI94 entry or part of it) above
Sequence of SiOBP15 + SiFABP5 (Z9HHL8OTK9 1-133): as the sequence (Z9HHL8OTK9 1-133) above

Compound	binding to SiOBP15 (in words) [1]	Ki [1, 6] [µM]	binding to SiOBP15 incubated with SiApoLp-III (in words) ([2]; 1-NPN competition, complex)	Ki [2, 7] [µM]	corpse dismemberment, RNAi targeting SiOBP15 + SiApoLp-III [3]	corpse dismemberment, RNAi targeting SiApoLp-III [3]	corpse dismemberment, RNAi targeting SiFABP5 [3]	corpse dismemberment, RNAi targeting SiOBP15 [3]	corpse dismemberment, GFP RNAi (control) workers [3]	dismemberment behaviour towards freeze-killed ants treated with the compound [3]	also measured
CCCCC/C=C\C/C=C\CCCCCCCC(=O)O [linoleic acid, cis,cis-9,12-linoleic acid]	able to bind	25.8	did not show binding	> 500	increased^c	no change^c	increased^c	increased^c	decreased^a	significantly reduced	effect on behaviour [3]: inhibits dismemberment; dismemberment behaviour towards freeze-killed ants treated with the compound ([3]; listed as cis, cis-9,12-linoleic acid): inhibit this behaviour; dismemberment behaviour towards freeze-killed ants treated with the compound ([3]; listed as cis,cis-9,12-linoleic acid): significant decrease
c1ccc(Nc2cccc3ccccc23)cc1 [1-NPN, N-phenyl-1-naphthylamine, reference compound]											Kd ([1]; Kd of 1-NPN to SiOBP15 (printed in figure 2C), SiOBP15+NPN, unit inferred): 16.9 µM; Kd ([1]; Kd of 1-NPN to SiOBP15, Scatchard analysis, 1.0 μM protein, 2 to 20 μM 1-NPN): 16.9 µM; Kd ([2]; read-out: dissociation constant of 1-NPN to SiOBP15 + SiApoLp-III; co-incubation; modelled to single 1-NPN binding sites): 18.2 µM
CCCCCCCCCCCCCCCCCCCCCC(=O)O [behenic acid]					decreased^b	decreased^b	no change^b	slight decrease^b	increased^a	significant increase; also recorded: induced dismemberment behaviour; also recorded: induces corpse-dismemberment	Ki [1]: 14 µM; Ki [2, 8]: 19.3 µM; effect on behaviour [3]: induces dismemberment
CCCCC=CCCO [3-octenol]		15.2		> 500							
3-octenol	able to bind										Ki [4]: 15.7 µM; Ki [5]: 12.6 µM
CC(=O)C(C)O (stereo not shown) [acetoin]	binds	26.5	limited binding	83.3						No significant effects	
CCCCCCCC/C=C/CCCCCCCCCC(=O)O [trans-11-eicosenoic acid]	No binding	> 500		> 500	no change^e	no change^e	no change^e	no change^e	no change^a	No significant effects; also recorded: did not alter dismemberment behaviour	
CC(=O)C(C)=O [2,3 butanedione]	binds		limited binding	70.9						No significant effects	
CCCCCCCC/C=C\CCCCCCCC(=O)O [oleic acid]	able to bind		did not show binding		no change^d	no change^d	no change^d	no change^d	decreased^a	significant decrease; also recorded: reduced dismemberment behaviour; also recorded: inhibit this behaviour	Ki [1]: 15.5 µM; Ki [2, 8]: > 500 µM; effect on behaviour [3]: inhibits dismemberment
CC1CCOC1=O (stereo not shown) [3-methyltetrahydro-2-furanone]										No significant effects	Ki [1]: 16 µM; Ki [2, 8]: 57.2 µM
CCCCCCCCCCC/C=C/CCCCC(=O)O [trans-6-octadecenoic acid]										No significant effects	
C=CC(=C)CCC=C(C)C [myrcene]										No significant effects	
